Results as given in article PMC6151990, “Effects of P-Glycoprotein on the Transport of DL0410, a Potential Multifunctional Anti-Alzheimer Agent” (Molecules : A Journal of Synthetic Chemistry and Natural …, 2017).
Counter-ions that a name gives are not always drawn.

How the values were obtained:
MDCK-MDR1 cell monolayer = test: Transcellular transport across MDCK-MDR1 cell monolayer; format: in vitro ADME, Canine; conditions: ER MDCK-MDR1 / ER MDCK
Protocol: (§2) Caco-2, MDCK and MDCK-MDR1cells were cultured at seeding densities of 1 × 10^5, 2 × 10^5, 2 × 10^5 cells/cm^2, respectively, onto polycarbonate membrane transwell inserts in 12-well plates. Prior to performing the transport studies, we determined the values of Trans Epithelial Electric Resistance (TEER) and Papp values of fluorescein to ensure the integrity of the monolayers [16]. After seeding for 18 and 21 days, the cultural medium of transwell chambers was removed carefully and washed twice with HBSS (pH 7.4, 37 °C), and then pre-incubated for 30 min at 37 °C. The transwell chambers were incubated for 20 min at 37 °C. […] After incubation for 2 h, the liquor of each side was collected for determination.
(§3) To analyze DL0410 in HBSS buffer, 15 µL of IS working solution (phenacetin, 1 µg/mL) and 150 µL sample were mixed with 1000 µL ethyl acetate to extract the analytes, and then vortexed for 5 min. After centrifuging at 13,000 rpm for 10 min, the supernatant was added into another tube carefully and evaporated to dryness under a gentle flow of nitrogen gas. The residue was reconstituted in 60 µL acetonitrile–water (20:80, v/v, containing 0.5% formic acid). After centrifugation, the supernatant was used for analysis. The analytical column was Agilent Zorbax SD-C18 (100 mm × 2.1 mm, 3.5 µm; Agilent Technologies, Santa Clara, CA, USA). The mobile phase was made up of acetonitrile–water (0.5% formic acid) (20:80, v/v). Injection volume, flow rate, and column temperature were 20 µL, a 0.3 mL/min, and 35 °C, respectively. The mass spectrometer was operated in the positive scan mode. The conditions of ESI source were as follows: drying gas flow was set at 10 L/min, nebulizer pressure was 35.0 psig, capillary voltage was 3000 V, and drying gas temperature was 350 °C. The ESI was performed using nitrogen to assist nebulization.
(§4) The Papp values (cm/s) were computed according to the following equation [16], Papp=V/C0×1/S×dC/dt (V: volume of medium in the receiver chamber (mL); C0: initial concentration in the donor chamber (µM/mL), S: the surface area of monolayer (cm^2); dC/dt: variance rate in the receptor chamber of concentration with time (µM/mL/s)) The ER was calculated by the Papp value from BL to AP divided by Papp value from AP to BL. In MDCK-MDR1 and MDCK cell models, the NER was measured by comparing the ER values as follows [16]. (1) ER=Papp(B−A)/Papp(A−B) (2) NER=ERMDCK−MDR1/ERMDCK

P-gp [1] = test: as above; format: in vitro ADME, Canine; conditions: dog, pH 7.4
Protocol: as §2, §3, §4

P-gp (MDR1) = test: as above; format: in vitro ADME, Canine; conditions: dog, pH 7.4; MDCK-MDR1, DL0410 10 μM; read-out: ER
Protocol: as §2, §3, §4

[2] = Transcellular transport across MDCK cell monolayer; format: in vitro ADME, Canine; conditions: dog
Protocol: as §2, §3, §4

human P-gp membranes = human P-gp membranes (Homo sapiens, UniProt P08183); test: P-gp ATPase activity (Pgp-Glo assay); conditions: P-gp ATPase stimulation
Sequence of human P-gp membranes (P08183 whole entry): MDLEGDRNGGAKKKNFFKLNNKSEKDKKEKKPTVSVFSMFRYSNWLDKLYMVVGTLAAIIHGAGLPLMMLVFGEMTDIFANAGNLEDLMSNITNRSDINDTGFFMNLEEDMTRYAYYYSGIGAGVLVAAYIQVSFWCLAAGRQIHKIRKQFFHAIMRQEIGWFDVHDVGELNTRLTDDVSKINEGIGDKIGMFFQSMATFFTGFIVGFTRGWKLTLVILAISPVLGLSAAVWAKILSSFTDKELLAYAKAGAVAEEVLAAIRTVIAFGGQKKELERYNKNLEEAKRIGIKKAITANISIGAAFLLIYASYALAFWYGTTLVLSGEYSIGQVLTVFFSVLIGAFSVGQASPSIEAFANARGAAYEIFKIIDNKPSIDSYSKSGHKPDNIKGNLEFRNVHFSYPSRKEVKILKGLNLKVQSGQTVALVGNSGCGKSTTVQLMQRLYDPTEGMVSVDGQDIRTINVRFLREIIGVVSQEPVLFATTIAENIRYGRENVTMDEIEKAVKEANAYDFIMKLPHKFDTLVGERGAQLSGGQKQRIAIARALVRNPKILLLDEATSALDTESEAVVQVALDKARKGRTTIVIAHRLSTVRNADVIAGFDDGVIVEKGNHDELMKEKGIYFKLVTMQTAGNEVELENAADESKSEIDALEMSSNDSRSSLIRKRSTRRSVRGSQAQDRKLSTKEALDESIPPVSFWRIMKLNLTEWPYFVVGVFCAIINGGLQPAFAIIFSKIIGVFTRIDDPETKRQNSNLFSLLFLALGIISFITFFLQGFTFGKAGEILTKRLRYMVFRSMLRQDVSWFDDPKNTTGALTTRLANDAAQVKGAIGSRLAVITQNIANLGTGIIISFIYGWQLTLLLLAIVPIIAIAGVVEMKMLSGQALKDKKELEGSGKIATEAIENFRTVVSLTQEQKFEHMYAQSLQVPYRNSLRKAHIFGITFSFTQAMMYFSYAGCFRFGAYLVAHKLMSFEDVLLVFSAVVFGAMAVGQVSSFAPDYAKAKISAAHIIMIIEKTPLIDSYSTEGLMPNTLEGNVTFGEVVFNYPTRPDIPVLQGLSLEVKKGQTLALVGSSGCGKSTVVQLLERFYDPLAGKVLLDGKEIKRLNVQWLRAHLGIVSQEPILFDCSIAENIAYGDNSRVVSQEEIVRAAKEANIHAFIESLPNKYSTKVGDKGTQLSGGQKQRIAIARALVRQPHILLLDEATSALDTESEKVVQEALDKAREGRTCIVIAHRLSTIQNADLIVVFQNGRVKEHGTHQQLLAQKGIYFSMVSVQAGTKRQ

MDCK cells = test: CCK-8 cytotoxicity assay, MDCK; format: cell-based, Canine; conditions: 100 µM, 12 h
Protocol: (§1) The cytotoxicity of DL0410 was determined by the CCK-8 assay. Caco-2 Cells, at a density of 1 × 10^5 cells/mL, were seeded in 96-well plates for culture. The seeding density of MDCK and MDCK-MDR1cells were 0.8 × 10^5 cells/mL. Two days after seeding, increasing concentrations (0.1, 1, 10, 100 µM) of DL0410 were added for treatment, and cytotoxicity was measured after 12 h by the CCK-8 assay.

Caco-2 cells = test: CCK-8 cytotoxicity assay, Caco-2; format: cell-based, human; conditions: Caco-2, 100 µM, 12 h
Protocol: as §1

P-gp [3] = molecular target: T1, P-gp (Homo sapiens, UniProt P08183); test: Effect on Rho123 transport (BL to AP) in MDCK-MDR1 cells; format: cell-based; conditions: MDCK-MDR1, Rho123 10 µM, DL0410 50 µM, 2 h
T1 construct: expressed in transfected cells; host or cells: MDCK-MDR1 (canine kidney MDCK cells transfected with the human MDR1 gene)
T1 sequence (P08183 whole entry): as above

MDCK-MDR1 cells = test: CCK-8 cytotoxicity assay, MDCK-MDR1; format: cell-based, Canine; conditions: MDCK-MDR1, 100 µM, 12 h
Protocol: as §1

[4] = Transcellular transport across Caco-2 cell monolayer; format: in vitro ADME; conditions: human
Protocol: as §2, §3, §4

[5] = Transcellular transport across MDCK-MDR1 cell monolayer; format: in vitro ADME, Canine; conditions: dog; MDCK-MDR1 monolayer, integrity control; read-out: permeability value
Protocol: as §2, §3, §4

Caco-2 cell monolayer = test: Transcellular transport across Caco-2 cell monolayer; format: in vitro ADME; conditions: human, Caco-2
Protocol: as §2, §3, §4

O=C(CCN1CCCCC1)c1ccc(-c2ccc(C(=O)CCN3CCCCC3)cc2)cc1 [DL0410, 1,1’-([1,1’-Biphenyl]-4,4’-diyl)bis(3-(piperidin-1-yl)propan-1-one)dihydrochloride]
NER (MDCK-MDR1 cell monolayer; DL0410 10 μM): 10.588 | NER (MDCK-MDR1 cell monolayer; DL0410 30 μM): 8.770 | NER (MDCK-MDR1 cell monolayer; DL0410 30 μM + verapamil (50 μM)): 0.311 | NER (MDCK-MDR1 cell monolayer; DL0410 100 μM): 5.556 | Papp A→B at 2 h, 10 µM (P-gp [1]; MDCK-MDR1, DL0410 10 μM): 0.297 ± 0.111 ×10⁻⁶ cm/s | Papp B→A at 2 h, 10 µM (P-gp [1]; MDCK-MDR1, DL0410 10 μM): 4.43 ± 0.376 ×10⁻⁶ cm/s | Papp A→B at 2 h, 30 µM (P-gp [1]; MDCK-MDR1, DL0410 30 μM): 0.31 ± 0.021 ×10⁻⁶ cm/s | Papp B→A at 2 h, 30 µM (P-gp [1]; MDCK-MDR1, DL0410 30 μM): 3.21 ± 0.061 ×10⁻⁶ cm/s | efflux ratio at 2 h, 30 µM (P-gp [1]; MDCK-MDR1, DL0410 30 μM, read-out: ER): 10.3 | Papp A→B at 2 h, 100 µM (P-gp [1]; MDCK-MDR1, DL0410 100 μM): 0.321 ± 0.039 ×10⁻⁶ cm/s | Papp B→A at 2 h, 100 µM (P-gp [1]; MDCK-MDR1, DL0410 100 μM): 1.73 ± 0.105 ×10⁻⁶ cm/s | efflux ratio at 2 h, 100 µM (P-gp [1]; MDCK-MDR1, DL0410 100 μM, read-out: ER): 5.41 | efflux ratio at 2 h, 10 µM (P-gp (MDR1)): 14.9 | efflux ratio at 2 h ([2]; pH 7.4, MDCK cells, summary value in text, read-out: ER): ~1 | Papp A→B at 2 h, 10 µM ([2]; pH 7.4, MDCK, DL0410 10 μM): 0.502 ± 0.103 ×10⁻⁶ cm/s | Papp B→A at 2 h, 10 µM ([2]; pH 7.4, MDCK, DL0410 10 μM): 0.708 ± 0.114 ×10⁻⁶ cm/s | efflux ratio at 2 h, 10 µM ([2]; pH 7.4, MDCK, DL0410 10 μM, read-out: ER): 1.41 | Papp A→B at 2 h, 30 µM ([2]; pH 7.4, MDCK, DL0410 30 μM): 0.74 ± 0.023 ×10⁻⁶ cm/s | Papp B→A at 2 h, 30 µM ([2]; pH 7.4, MDCK, DL0410 30 μM): 0.871 ± 0.068 ×10⁻⁶ cm/s | efflux ratio at 2 h, 30 µM ([2]; pH 7.4, MDCK, DL0410 30 μM, read-out: ER): 1.18 | Papp A→B at 2 h, 100 µM ([2]; pH 7.4, MDCK, DL0410 100 μM): 0.95 ± 0.116 ×10⁻⁶ cm/s | Papp B→A at 2 h, 100 µM ([2]; pH 7.4, MDCK, DL0410 100 μM): 0.924 ± 0.005 ×10⁻⁶ cm/s | efflux ratio at 2 h, 100 µM ([2]; pH 7.4, MDCK, DL0410 100 μM, read-out: ER): 0.973 | concentration at which the activity of ATPase was saturated (human P-gp membranes): 150 µM | cytotoxicity (MDCK cells): no significant cytotoxic effect | cytotoxicity (Caco-2 cells): no significant cytotoxic effect | effect on Rho123 transport from BL to AP (P-gp [3]): reduced Rho123 efflux | cytotoxicity (MDCK-MDR1 cells): no significant cytotoxic effect | Papp A→B at 2 h, 10 µM ([4]; pH 7.4, Caco-2, DL0410 10 μM): 0.725 ± 0.184 ×10⁻⁶ cm/s | Papp B→A at 2 h, 10 µM ([4]; pH 7.4, Caco-2, DL0410 10 μM): 3.27 ± 0.251 ×10⁻⁶ cm/s | efflux ratio at 2 h, 10 µM ([4]; pH 7.4, Caco-2, DL0410 10 μM, read-out: ER): 4.52 | Papp A→B at 2 h, 30 µM ([4]; pH 7.4, Caco-2, DL0410 30 μM): 0.841 ± 0.098 ×10⁻⁶ cm/s | Papp B→A at 2 h, 30 µM ([4]; pH 7.4, Caco-2, DL0410 30 μM): 3.45 ± 0.619 ×10⁻⁶ cm/s | efflux ratio at 2 h, 30 µM ([4]; pH 7.4, Caco-2, DL0410 30 μM, read-out: ER): 4.1 | Papp A→B at 2 h, 100 µM ([4]; pH 7.4, Caco-2, DL0410 100 μM): 1.28 ± 0.017 ×10⁻⁶ cm/s | Papp B→A at 2 h, 100 µM ([4]; pH 7.4, Caco-2, DL0410 100 μM): 2.38 ± 0.138 ×10⁻⁶ cm/s | efflux ratio at 2 h, 100 µM ([4]; pH 7.4, Caco-2, DL0410 100 μM, read-out: ER): 1.86 | Papp at 2 h ([4]; pH 7.4, Caco-2, summary value in text (A→B), read-out: apparent permeability (Papp)): ~1 ×10⁻⁶ cm/s

COc1ccc(CCN(C)CCCC(C#N)(c2ccc(OC)c(OC)c2)C(C)C)cc1OC (stereo not shown) [Verapamil, reference compound]
concentration at which the activity of ATPase was saturated (human P-gp membranes): 100 µM

O=C1OC2(c3ccc(O)cc3Oc3cc(O)ccc32)c2ccccc21 [fluorescein, reference compound]
Papp [5]: 0.571 ×10⁻⁶ cm/s | Papp ([2]; MDCK monolayer, integrity control, read-out: permeability value): 0.702 ×10⁻⁶ cm/s | penetration rate (Caco-2 cell monolayer): 0.10% | Papp ([4]; Caco-2 monolayer, integrity control, read-out: apparent permeability (Papp)): 1.09 ×10⁻⁶ cm/s
